Test results from publication PMC7998669, “7-(2-Anilinopyrimidin-4-yl)-1-benzazepin-2-ones Designed by a “Cut and Glue” Strategy Are Dual Aurora A/VEGF-R Kinase Inhibitors” (Molecules, 2021).

Legend:
Assay in all cases: NCI cancer cell line screen (sulforhodamin B)
Assay type in all cases: cell-based
NCI-H226 = settings: Homo sapiens; NCI-H226, NSCL; 48 h; read-out: log10 GI50 (converted)
Experimental: (§1) The new dual Aurora A/VEGF-R inhibitors 2e and 2n were selected by the National Cancer Institute for screening in its broad cancer cell line panel. The NCI in vitro assay is performed by incubation of cells with test compounds for 48 h and subsequent cell fixation with trichloroacetic acid. The pink dye sulforhodamin B is added, which binds to the proteins of the fixed cells. After washing and solubilizing the bound stain, the optical density is measured spectrophotometrically to determine the relative proliferation of treated and untreated cells.
(§2) Simultaneous inhibition of the Aurora A kinase and the VEGF-R2/3 receptor kinases may represent an interesting dual activity for the treatment of cancer. The National Cancer Institute selected the compounds 2e and 2n as representatives with particularly high inhibitory activity on the above kinases for testing in the IVCLS (in vitro cell line screening). In this screening, compounds are tested for antiproliferative activity on about 60 in vitro cultivated tumor cell lines. Based on this very broad screening on cell lines from nine tumor entities the general antiproliferative potency of compounds is determined. In addition, the bioinformatic tool COMPARE allowed one to draw conclusions on the molecular target of the compounds from the activity patterns on the different cell lines. Similar molecular mechanisms of action of two compounds are assumed if a Pearson correlation coefficient (PCC) of > 0.6 is calculated by COMPARE [52, 53]. […] The selectivity profile of the two compounds is not very pronounced given the overall very similar proliferation inhibition values across all cell lines. A COMPARE analysis determined a PCC = 0.61 for the patterns of test compounds 2e and 2n, which is consistent with an analogous mechanism of action. However, whether this mechanism is actually based on the inhibition of the inhibited Aurora kinases and VEGF receptor kinases cannot be deduced from these profiles.

CCRF-CEM = settings: Homo sapiens, Leukemia, 48 h, read-out: log10 GI50 (converted)
Experimental: as §1, §2

HL-60(TB) = settings: Homo sapiens, Leukemia, 48 h, read-out: log10 GI50 (converted)
Experimental: as §1, §2

U251 = settings: Homo sapiens, U-251; U251, CNS; 48 h; read-out: log10 GI50 (converted)
Experimental: as §1, §2

M14 = settings: Homo sapiens; M14, Melanoma; 48 h; read-out: log10 GI50 (converted)
Experimental: as §1, §2

MCF7 = settings: Homo sapiens; MCF7, Breast; 48 h; read-out: log10 GI50 (converted)
Experimental: as §1, §2

HOP-92 = settings: Homo sapiens; HOP-92, NSCL; 48 h; read-out: log10 GI50 (converted)
Experimental: as §1, §2

IGROV1 = settings: Homo sapiens, IGROV-1; IGROV1, Ovarian; 48 h; read-out: log10 GI50 (converted)
Experimental: as §1, §2

SNB-75 = settings: Homo sapiens; SNB-75, CNS; 48 h; read-out: log10 GI50 (converted)
Experimental: as §1, §2

OVCAR-5 = settings: Homo sapiens; OVCAR-5, Ovarian; 48 h; read-out: log10 GI50 (converted)
Experimental: as §1, §2

RXF 393 = settings: Homo sapiens; RXF 393, Renal; 48 h; read-out: log10 GI50 (converted)
Experimental: as §1, §2

786-0 = settings: Homo sapiens; 786-0, Renal; 48 h; read-out: log10 GI50 (converted)
Experimental: as §1, §2

NCI-H322M = settings: Homo sapiens, NSCL, 48 h, read-out: log10 GI50 (converted)
Experimental: as §1, §2

NCI-H23 = settings: Homo sapiens; NCI-H23, NSCL; 48 h; read-out: log10 GI50 (converted)
Experimental: as §1, §2

HCT-116 = settings: Homo sapiens; HCT-116, Colon; 48 h; read-out: log10 GI50 (converted)
Experimental: as §1, §2

SK-MEL-2 = settings: Homo sapiens; SK-MEL-2, Melanoma; 48 h; read-out: log10 GI50 (converted)
Experimental: as §1, §2

MDA-MB-231/ATCC = settings: Homo sapiens, Breast, 48 h, read-out: log10 GI50 (converted)
Experimental: as §1, §2

SK-OV-3 = settings: Homo sapiens; SK-OV-3, Ovarian; 48 h; read-out: log10 GI50 (converted)
Experimental: as §1, §2

SR = settings: Homo sapiens, Leukemia, 48 h, read-out: log10 GI50 (converted)
Experimental: as §1, §2

A498 = settings: Homo sapiens; A498, Renal; 48 h; read-out: log10 GI50 (converted)
Experimental: as §1, §2

LOX IMVI = settings: Homo sapiens, Melanoma, 48 h, read-out: log10 GI50 (converted)
Experimental: as §1, §2

HS 578T = settings: Homo sapiens, Breast, 48 h, read-out: log10 GI50 (converted)
Experimental: as §1, §2

TK-10 = settings: Homo sapiens; TK-10, Renal; 48 h; read-out: log10 GI50 (converted)
Experimental: as §1, §2

T-47D = settings: Homo sapiens, T47D, Breast, 48 h, read-out: log10 GI50 (converted)
Experimental: as §1, §2

OVCAR-4 = settings: Homo sapiens; OVCAR-4, Ovarian; 48 h; read-out: log10 GI50 (converted)
Experimental: as §1, §2

HOP-62 = settings: Homo sapiens; HOP-62, NSCL; 48 h; read-out: log10 GI50 (converted)
Experimental: as §1, §2

ACHN = settings: Homo sapiens, Renal, 48 h, read-out: log10 GI50 (converted)
Experimental: as §1, §2

OVCAR-3 = settings: Homo sapiens; OVCAR-3, Ovarian; 48 h; read-out: log10 GI50 (converted)
Experimental: as §1, §2

O=C1CCCc2cc(-c3ccnc(Nc4ccc(O)cc4)n3)ccc2N1 [Compound 2e, 7-[2-(4-Hydroxyanilino)pyrimidin-4-yl]-1,3,4,5-tetrahydro-2H-1-benzazepin-2-one]
GI50 (NCI-H226): 29.5 µM
GI50 (CCRF-CEM): 2.51 µM
GI50 (HL-60(TB)): 1.38 µM
GI50 (U251): 6.03 µM
GI50 (M14): 4.07 µM
GI50 (MCF7): 4.27 µM
GI50 (HOP-92): 6.61 µM
GI50 (IGROV1): 2.51 µM
GI50 (SNB-75): 3.39 µM
GI50 (OVCAR-5): 6.46 µM
GI50 (RXF 393): 1.86 µM
GI50 (786-0): 4.37 µM
GI50 (NCI-H322M): 4.07 µM
GI50 (NCI-H23): > 100 µM
GI50 (HCT-116): 3.63 µM
GI50 (SK-MEL-2): 2.09 µM
GI50 (MDA-MB-231/ATCC): > 100 µM
GI50 (SK-OV-3): 3.02 µM
GI50 (SR): 1.32 µM
GI50 (A498): 4.79 µM
GI50 (LOX IMVI): 3.39 µM
GI50 (HS 578T): 4.9 µM
GI50 (TK-10): 3.8 µM
GI50 (T-47D): 1.55 µM
GI50 (OVCAR-4): 5.62 µM
GI50 (HOP-62): 11 µM
GI50 (ACHN): 2.57 µM
GI50 (OVCAR-3): 5.89 µM

COc1ccc(Nc2nccc(-c3ccc4c(c3)CCCC(=O)N4)n2)cc1O [Compound 2n, 7-[2-(3-Hydroxy-4-methoxyanilino)pyrimidin-4-yl]-1,3,4,5-tetrahydro-2H-1-benzazepin-2-one]
GI50 (NCI-H226): 9.12 µM
GI50 (CCRF-CEM): 3.89 µM
GI50 (HL-60(TB)): 3.16 µM
GI50 (U251): 10.2 µM
GI50 (M14): 4.37 µM
GI50 (MCF7): 5.13 µM
GI50 (HOP-92): 0.214 µM
GI50 (IGROV1): 3.02 µM
GI50 (SNB-75): 2.19 µM
GI50 (OVCAR-5): 8.71 µM
GI50 (RXF 393): 2.69 µM
GI50 (786-0): 4.57 µM
GI50 (NCI-H322M): 30.9 µM
GI50 (NCI-H23): 11.7 µM
GI50 (HCT-116): 3.8 µM
GI50 (SK-MEL-2): 9.12 µM
GI50 (MDA-MB-231/ATCC): > 100 µM
GI50 (SK-OV-3): 5.25 µM
GI50 (SR): 3.16 µM
GI50 (A498): 37.2 µM
GI50 (LOX IMVI): 5.5 µM
GI50 (HS 578T): 2.14 µM
GI50 (TK-10): 23.4 µM
GI50 (T-47D): 4.07 µM
GI50 (OVCAR-4): 7.59 µM
GI50 (HOP-62): 8.13 µM
GI50 (ACHN): 4.17 µM
GI50 (OVCAR-3): 10 µM
